Measurements taken from patent publication US12527788B2, “Defining RNA-small molecule affinity landscapes enables design of a small molecule inhibitor of an oncogenic non-coding RNA” (University of Florida Research Foundation, Incorporated, priority 2017, dated 2026).

What was measured:
selected RNA motifs = test: In solution fluorescence-based binding affinity measurement; settings: read-out: Average Kd of Selected RNA Binders
Experimental: Bound RNA motifs for each compound were harvested from the array surface, amplified, and identified by using high throughput sequencing (RNA-seq). Highly abundant RNAs in the sequencing data were then subjected to binding measurements. Typically, those RNAs that were highly enriched bound to the small molecules with affinities (Kds) that ranged from 1 to 10 μM (FIG. 2 and Table 1) while binding to the starting libraries was not saturable. These affinities are promising for binding RNA, as it has been difficult to acquire low micromolar affinity with compounds of this low molecular weight. In fact, RNAs that have undergone Darwinian evolution to bind small molecules, namely riboswitches, often bind their cognate ligand at […] concentrations;^30-33 bioactive compounds that mimic riboswitch ligands bind with similar affinities.^30,34
(§1) Binding Affinity Measurements: An in solution, fluorescence-based assay was used to determine binding affinities by monitoring the change in fluorescence intensity of 1-FL (or 2-FL/3-FL/4-FL) as a function of RNA concentration as described previously.^18 Briefly, the RNA of interest was folded in 1× Folding Buffer (8 mM Na2HPO4, pH 7.0, 185 mM NaCl and 1 mM EDTA) by heating at 60° C. for 5 min followed by slowly cooling to room temperature on the bench top. Then, the FL-conjugated compound was added into the RNA solution to a final concentration of 100 nM. Serial dilutions were then completed using 1× Folding Buffer supplemented with 100 nM FL-conjugated compound. The solutions were incubated at room temperature for 30 min and then transferred to a well of a black 384-well plate. Fluorescence intensity was measured using a Bio-Tek FL×800 plate reader with an excitation wavelength of 485/20 nm and an emission wavelength of 528/20 nm. The change in fluorescence intensity as a function of the concentration of RNA was fit to equation 3:^9 I=I0+0.5 Δε{([FL]0+[RNA]0 +Kd)−(([FL]0+[RNA]0+Kd)^2−4[FL]0[RNA]0)^1/2} (3) where I is the observed fluorescence intensity; I0 is the fluorescence intensity in the absence of RNA; Δε is the difference between the fluorescence intensity in the absence of RNA and in the presence of infinite RNA concentration; [FL]0 is the concentration of compound; [RNA]0 is the concentration of the selected RNA; and Kd is the dissociation constant.

AT-rich DNA hairpin = test: as above
Excerpt: It has been difficult to identify compounds that are heterocyclic in nature that selectively recognize RNA over DNA.^5 Thus, to further gain insight into the selectivity of our RNA motif-small molecule interactions, we compared the measured affinities for selected RNA motifs to the affinities of the ligands for an AT-rich DNA hairpin, a common target of small molecules similar to those shown in FIG. 1. […] This alteration reduces DNA affinity because key stacking and hydrogen bonding interactions are not possible. […] Thus, the interactions selected via 2DCS are RNA-selective.
as §1

Kd (selected RNA motifs) | Kd (AT-rich DNA hairpin) | SMILES
8 ± 4 µM | > 100 µM | CC(C)c1cc(-c2nc3ccc(-c4ccc(N5CCN(C)CC5)cc4)cc3[nH]2)cc(C(C)C)c1OCCCC(=O)NCCCN=[N+]=[N-] [Compound 3]
16 ± 9 µM | > 100 µM | CN1CCN(c2ccc(-c3ccc4nc(-c5ccc(OCCCC(=O)NCCCN=[N+]=[N-])cc5)[nH]c4c3)cc2)CC1 [Compound 1]
7 ± 5 µM | > 100 µM | Cc1cc(-c2nc3ccc(-c4ccc(N5CCN(C)CC5)cc4)cc3[nH]2)cc(C)c1OCCCC(=O)NCCCN=[N+]=[N-] [Compound 2]
